According to PMC8897968 (European Journal of Medicinal Chemistry, 2022):

Experiments:
rabies virus CVS strain = experiment: microbe, parasite or virus in culture; format: cell-based; conditions: for IC50: Lyssavirus rabies, read-out: IC50 values (anti-rabies, as worded in the text)
Kunming mice = experiment: Acute toxicity test in Kunming mice; conditions: oral, single dose, monitored for 7 days
rabies virus G protein = rabies virus G protein (Rabies virus, UniProt O92284); experiment: biochemical; format: binding
rabies virus G protein, sequence (O92284 20-459 limits assumed): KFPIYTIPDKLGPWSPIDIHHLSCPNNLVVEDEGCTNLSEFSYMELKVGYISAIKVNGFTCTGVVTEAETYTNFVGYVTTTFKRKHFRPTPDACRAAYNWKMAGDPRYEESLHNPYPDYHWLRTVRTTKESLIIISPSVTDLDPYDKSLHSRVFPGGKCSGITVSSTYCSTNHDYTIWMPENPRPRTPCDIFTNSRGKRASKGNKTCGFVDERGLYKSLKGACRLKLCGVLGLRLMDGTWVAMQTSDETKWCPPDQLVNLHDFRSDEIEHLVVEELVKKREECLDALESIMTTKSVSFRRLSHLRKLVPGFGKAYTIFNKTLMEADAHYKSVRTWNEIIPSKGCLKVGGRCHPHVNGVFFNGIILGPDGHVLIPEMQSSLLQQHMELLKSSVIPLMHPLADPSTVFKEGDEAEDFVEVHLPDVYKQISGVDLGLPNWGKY

BSR cells = experiment: Cytotoxicity in BSR cells; conditions: Cytotoxic concentration required to inhibit BSR cell growth by 50%
Huh 7 cells = experiment: Cytotoxicity in Huh 7 cells; conditions: Cytotoxic concentration required to inhibit Huh 7 cell growth by 50%
pSARS-CoV-2 = format: cell-based, SARS-CoV-2
[1] = Cytotoxicity in Huh 7 cells; conditions: human, Huh 7 cells

With `COc1ccc(-n2c3c/c(=N\C(C)C)c(Nc4ccc(F)cc4)cc-3nc3ccccc32)cn1` [Compound 15g, 2-p-Fluoroanilino-3-isopropylimino-5-(6-methoxy-3-pyridinyl)-3,5-dihydro phenazine] the IC50 (rabies virus CVS strain) was 1.41 µM and the “median lethal dose (LD50)” value (Kunming mice) was “over 800 mg•kg^−1”.

With `CC(C)/N=c1\cc2n(-c3ccc(Cl)cc3)c3ccccc3nc-2cc1NCc1ccc(Cl)cc1` [Compound 7k, 2-p-Chlorobenzylamino-3-isopropylimino-5-p-chlorophenyl-3,5-dihydrophena zine] the IC50 (rabies virus CVS strain) was 0.76 µM.

For `CC(C)/N=c1\cc2n(-c3ccccc3)c3ccccc3nc-2cc1Nc1ccc(Cl)cc1` [Compound 7l], the IC50 (rabies virus CVS strain) was 1.4 µM.

With `COc1ccc(-n2c3c/c(=N\C(C)C)c(Nc4cccc(F)c4)cc-3nc3ccccc32)cn1` [Compound 15f, 2-m-Fluoroanilino-3-isopropylimino-5-(6-methoxy-3-pyridinyl)-3,5-dihydro phenazine] the IC50 (rabies virus CVS strain) was 1.45 µM, the Kd (rabies virus G protein) was 0.28 µM and the “median lethal dose (LD50)” value (Kunming mice) was “over 800 mg•kg^−1”.

In the case of “2-p-fluoroanilino-3-isopropylimino-5-p-chlorophenyl-3,5-dihydrophenazine [Compound 15a]”, the EC50 (rabies virus CVS strain) is reported as 4.02 µM, the CC50 (BSR cells) is reported as > 200 µM and the CC50 (Huh 7 cells) is reported as 17 µM. It also gave an EC50 (pSARS-CoV-2) of 29.6 µM.

For `CC(C)/N=c1\cc2n(-c3ccc(Cl)cc3)c3ccccc3nc-2cc1Nc1ccc(Cl)cc1` [Compound 1, clofazimine, reference compound], the Kd (rabies virus G protein) was 0.73 µM.

In the case of `CC(C)/N=c1\cc2n(-c3ccc(Cl)cc3)c3ccccc3nc-2cc1Nc1ccc(OC(F)(F)F)cc1` [Compound 7i, 2-p-Trifluoromethoxyanilino-3-isopropylimino-5-p-chlorophenyl-3,5-dihydro phenazine], the IC50 (rabies virus CVS strain) is reported as 1.77 µM.

In the case of `CC(C)/N=c1\cc2n(-c3ccc(F)cc3)c3ccccc3nc-2cc1Nc1ccc(F)cc1` [Compound 15b], the CC50 at 24 h [1] is reported as > 200 µM.

For `CC(C)/N=c1\cc2n(-c3ccccc3)c3ccccc3nc-2cc1NCc1ccccc1` [Compound 7p, 2-Benzylamino-3-isopropylimino-5-phenyl-3,5-dihydrophenazine], the IC50 (rabies virus CVS strain) was 1.4 µM.

“2-Benzyl-3-imino-5-phenyl-3,5-dihydrophenazine [Compound 6l]” showed an EC50 (rabies virus CVS strain) of 35.4 µM and a CC50 (BSR cells) of 35.4 µM.

`CC(C)/N=c1\cc2n(-c3ccccc3)c3ccccc3nc-2cc1NCc1ccc(F)cc1` [Compound 7q, 2-p-Fluorobenzylamino-3-isopropylimino-5-phenyl-3,5-dihydrophenazine] showed an IC50 (rabies virus CVS strain) of 1.9 µM.
